Measured values as given in patent US20180327367A1, “MACROCYCLIC BROAD SPECTRUM ANTIBIOTICS” (priority 2015, published 2018).
Values after ≈ are worked out from the molar mass of the structure shown. Read-outs that look alike come from different tables or passages of the source.

Columns and labels:
[1] = test system: Methicillin Resistant Staphylococcus aureus strain USA 300, NRS384; assay: Minimum inhibitory concentration, broth micro-dilution (CLSI), S. aureus; assay type: cell-based; settings: Staphylococcus aureus, MRSA / NRS 384 / USA300, 22 h
Procedure, shortened: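 Colonies grown 20 hours at 35° C were suspended in cation-adjusted Mueller Hinton Broth with 0.002% Tween-80. Cells were then added to 2-fold compound dilutions starting at 4 or 0.5 μg/mL, at OD600 0.0005.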

[2] = biological target: T1, SpsB (Staphylococcus aureus signal peptidase) (Staphylococcus aureus, UniProt P0A070); assay: cell-based; assay type: biochemical; settings: SpsB IC50, whole-cell S. aureus (USA300 background, overexpressing SpsB) as SpsB source; fluorogenic peptide substrate, kinetic read 30 min
T1 construct: This assay uses a suspension of Staphylococcus aureus cells as a source of SpsB instead of recombinant SpsB protein; endogenous in cells; host or cells: S. aureus, USA300 background, overexpressing SpsB (whole-cell suspension from frozen pellets)
Experimental: A kinetic fluorogenic enzyme activity assay was used to assess inhibition of SpsB (Staphylococcus aureus signal peptidase) activity and IC50s were determined. This assay uses a suspension of Staphylococcus aureus cells as a source of SpsB instead of recombinant SpsB protein.
Cell preparation: Luria broth (LB) was inoculated with S. aureus (USA300 background, overexpressing SpsB) and shaken at 37° C. until an OD600 nm of 1.5-2.0 was reached (˜4 hr). The culture was then diluted to an OD600 nm of 1.0 with LB, aliquoted and centrifuged at 10,000×g for 2 mins. The supernatant was removed and the pellet was resuspended in phosphate buffer (1×PBS, 12.5 mg/L MgCl2, 25 mg/L CaCl2, 0.1% Tween-80) to an OD600 nm of 0.5, then centrifuged again at 10,000x g for 2 mins. The supernatant was removed and the pellets were frozen at −20° C.
Test compounds were prepared in DMSO at a concentration of 10 mg/mL. These compound stocks were diluted into DMSO to a concentration of 25 μg/mL and serial 3-fold dilutions were made in DMSO, for a total of 11 compound concentrations. 20 nL of each compound solution was pre-spotted into a white 384-well plate (50 μL/well polypropylene, Nunc) using acoustic fluid transfer (Echo).
Frozen S. aureus pellets were resuspended in assay buffer (1x PBS, 12.5 mg/L MgCl2, 25 mg/L CaCl2, 0.1% Tween-80) to an OD600 nm of 0.05, then mixed 1:1 (v/v) with 20 μM substrate ((Dabcyl)βAla-KPAKAAE(Edans)) in assay buffer, and this solution was added (20 μL/well) to the 384-well plate that had been pre-spotted with compound. Fluorescence intensity was then immediately read kinetically for 30 minutes with 2 minute read intervals to monitor cleavage of the internally quenched peptide substrate (excitation wavelength=340 nm, emission wavelength=490 nm, Molecular Devices Spectramax M5). Reaction rate (slope) was plotted against inhibitor concentration to derive the IC50.

[3] = test system: Escherichia coli ATCC 25922; assay: Minimum inhibitory concentration, broth micro-dilution (CLSI), E. coli; assay type: cell-based; settings: Escherichia coli, ATCC25922, 22 h
[4] = test system: Escherichia coli MC4100 harboring the IMP4213 (E. coli IMP); assay: microbe, parasite or virus in culture; assay type: cell-based; settings: Escherichia coli, 22 h
Procedure, shortened: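 Ten 2-fold dilutions, from 4 μg/mL or from 0.5 μg/mL depending on protocol, are challenged with bacteria at OD600 0.0005 in Tween-80-supplemented cation-adjusted Mueller Hinton Broth. Plates incubate 22 hours at 35° C per CLSI. The E. coli IMP4213 strain has increased outer-membrane permeability.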

[5] = MRSA USA 300 NRS384, 35° C., 22 hours, read-out: MIC (μg/mL) S. aureus
[6] = E. coli ATCC 25922, 35° C., 22 hours, read-out: MIC (μg/mL) E. coli
[7] = read-out: MIC (μg/mL) E. coli IMP, E. coli MC4100 IMP4213, increased outer-membrane permeability, 35° C., 22 hours
[8] = read-out: MIC (μg/mL) S. aureus, MRSA USA 300 NRS384, 35° C., 22 hours
[9] = read-out: MIC (μg/mL) E. coli, E. coli ATCC 25922, 35° C., 22 hours

T1 sequence (P0A070 whole entry): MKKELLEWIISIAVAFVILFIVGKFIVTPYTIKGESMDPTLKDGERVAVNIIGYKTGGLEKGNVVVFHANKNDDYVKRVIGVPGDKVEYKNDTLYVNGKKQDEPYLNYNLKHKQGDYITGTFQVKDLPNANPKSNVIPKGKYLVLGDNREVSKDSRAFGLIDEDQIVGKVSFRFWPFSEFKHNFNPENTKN

SMILES	MIC [1, 5]	IC50 [2]	MIC [3, 6]	MIC [4, 7]	MIC [1, 8]	MIC [3, 9]	MIC ([1]; read-out: MIC (μg/mL) S. aureus)	MIC ([3]; read-out: MIC (μg/mL) E. coli)	MIC ([4]; read-out: MIC (μg/mL) E. coli IMP)
CCCCCCCCCCNCCC(=O)N[C@@H](CO)C(=O)N(C)[C@@H]1C(=O)N[C@@H](C)C(=O)N[C@H](C(=O)NCC#N)Cc2ccc(O)c(c2)-c2cc1ccc2O [Compound 469]	4 µg/mL (≈ 5.33 µM)	5 nM	> 64 µg/mL	> 4 µg/mL	–	–	–	–	–
CCCCCCCCc1ccc(C(=O)N[C@@H](CCCN)C(=O)N(C)[C@@H]2C(=O)N[C@@H](C)C(=O)N[C@H](C(=O)NCC#N)Cc3ccc(OC)c(c3)-c3cc2ccc3OC)c(OC)c1 [Compound 473]	1.5 µg/mL (≈ 1.79 µM)	39 nM	> 64 µg/mL	0.25 µg/mL (≈ 0.298 µM)	–	–	–	–	–
CCCCCCCCc1ccc(C(=O)N[C@@H](CCN)C(=O)N(C)[C@@H]2C(=O)N[C@@H](C)C(=O)N[C@H](C(=O)NCC#N)Cc3ccc(OCCN)c(c3)-c3cc2ccc3OCCN)c(SC)c1 [Compound 185]	0.19 µg/mL (≈ 0.211 µM)	0.91 nM	0.75 µg/mL (≈ 0.833 µM)	0.094 µg/mL (≈ 0.104 µM)	–	–	–	–	–
CCCCCCCCCC(=O)N[C@@H](CO)C(=O)N[C@@H](CCN)C(=O)N(C)[C@@H]1C(=O)N[C@@H](C)C(=O)N[C@H](C(=O)NCC#N)Cc2ccc(OCCN)c(c2)-c2cc1ccc2OCCN [Compound 360]	–	1.2 nM	–	0.31 µg/mL (≈ 0.353 µM)	0.22 µg/mL (≈ 0.25 µM)	24 µg/mL (≈ 27.3 µM)	–	–	–
CCCCCCCCCC(=O)NCC(=O)N(C)[C@@H]1C(=O)N[C@@H](C)C(=O)N[C@H](C(=O)NCC#N)Cc2ccc(OCCN)c(c2)-c2cc1ccc2OCCN [Compound 463]	0.5 µg/mL (≈ 0.668 µM)	3.2 nM	> 64 µg/mL	0.5 µg/mL (≈ 0.668 µM)	–	–	–	–	–
C[C@@H]1NC(=O)[C@@H](N(C)C(=O)[C@H](CCCCN)NC(=O)Cc2ccc(-c3ccc(Cl)cc3)cc2)c2ccc(OCCN)c(c2)-c2cc(ccc2OCCN)C[C@@H](C(=O)NCC#N)NC1=O [Compound 117]	–	2 nM	–	0.5 µg/mL (≈ 0.559 µM)	0.13 µg/mL (≈ 0.145 µM)	> 64 µg/mL	–	–	–
Cc1cc(-c2ccccc2)ccc1C(=O)N[C@@H](CCCN)C(=O)N(C)[C@@H]1C(=O)N[C@@H](C)C(=O)N[C@H](C(=O)NCC#N)Cc2ccc(OCCN)c(c2)-c2cc1ccc2OCCN [Compound 150]	0.25 µg/mL (≈ 0.296 µM)	0.82 nM	4 µg/mL (≈ 4.73 µM)	0.063 µg/mL (≈ 0.0745 µM)	–	–	–	–	–
Cc1cc(C2CCCCC2)ccc1C(=O)N[C@@H](CCN)C(=O)N(C)[C@@H]1C(=O)N[C@@H](C)C(=O)N[C@H](C(=O)NCC#N)Cc2ccc(OCCN)c(c2)-c2cc1ccc2OCCN [Compound 431]	0.063 µg/mL (≈ 0.0752 µM)	0.77 nM	0.88 µg/mL (≈ 1.05 µM)	0.023 µg/mL (≈ 0.0274 µM)	–	–	–	–	–
CCCCCCCCc1ccc(C(=O)N[C@@H](CCN)C(=O)N(C)[C@@H]2C(=O)N[C@@H](C)C(=O)N[C@H](C(=O)NCC#N)Cc3ccc(OCCN)c(c3)-c3cc2ccc3OCCN)c(O)c1 [Compound 193]	0.063 µg/mL (≈ 0.0724 µM)	0.93 nM	0.5 µg/mL (≈ 0.575 µM)	0.047 µg/mL (≈ 0.054 µM)	–	–	–	–	–
Cc1nc(-c2ccc([Si](C)(C)C)cc2)ncc1C(=O)N[C@@H](CCN)C(=O)N(C)[C@@H]1C(=O)N[C@@H](C)C(=O)N[C@H](C(=O)NCC#N)Cc2ccc(OCCN)c(c2)-c2cc1ccc2OCCN [Compound 170]	–	0.72 nM	–	–	–	–	0.073 µg/mL (≈ 0.0806 µM)	0.13 µg/mL (≈ 0.143 µM)	0.0085 µg/mL (≈ 0.00938 µM)
CCCCc1ccc(-c2cccc(C(=O)N[C@@H](CCCCN)C(=O)N(C)[C@@H]3C(=O)N[C@@H](C)C(=O)N[C@H](C(=O)NCC#N)Cc4ccc(OCCN)c(c4)-c4cc3ccc4OCCN)c2)cc1 [Compound 137]	0.063 µg/mL (≈ 0.0698 µM)	1.1 nM	4 µg/mL (≈ 4.43 µM)	0.063 µg/mL (≈ 0.0698 µM)	–	–	–	–	–
CCCCCCCCCCNCCC(=O)N[C@@H](CCCCN)C(=O)N(C)[C@@H]1C(=O)N[C@@H](C)C(=O)N[C@H](C(=O)NC(C)C#N)Cc2ccc(OCCN)c(c2)-c2cc1ccc2OCCN (stereo partly drawn) [Compound 415]	–	14 nM	–	4 µg/mL (≈ 4.49 µM)	> 4 µg/mL	64 µg/mL (≈ 71.8 µM)	–	–	–
